From US20100062078A1, “PHARMACEUTICAL COMPOSITION FOR TREATING CANCER AND THE SIGNALING PATHWAY THEREOF” (priority 2008, published 2010)

Columns and labels:
[1] = Body weight, complete blood count and biochemical profile of LNCap-xenografted nude mice; assay type: in vivo; settings: for BUN / Creatine / Got (glutamic-oxaloacetic transaminase) / Gpt (glutamic-pyruvic transaminase) / MCV (mean corpuscular volume) / RBC / WBC / Body weight: LNCap xenograft
Protocol: (§1) MDAH-2774 human ovarian cancer cells of 2×10^6 (or LNCap prostate cancer cells of 1×10^6) in 0.1 ml PBS were injected subcutaneously at the right flank of 6-week-old female nude mice (Foxnlun/Foxulun). When tumors became visible (approximately 3×3 mm in size), the mice were randomly grouped and treated intraperitoneally with protoapigenone or vehicle every other day. […] Tumor size and body weight were measured twice a week using calipers, and their tumor volumes were calculated according to a standard formula: width^2×length/2. After treatment with protoapigenone for 5 weeks, the mice xenografted with LNCap cells were sacrificed by deep anesthesia, and the blood sampling by cardiac aspiration was done immediately after anesthesia. Complete blood count of the nude mice blood was determined by Sysmex XE-2100 (TOA Medical Electronics, Kobe, Japan), and the plasma blood urea nitrogen (BUN), creatine (Cr), asparatate aminotransferase (AST), and alanine aminotransferase (ALT) levels were determined by Beckman LX20 (Beckman-Coulter, U.S.A.)

p38 MAPK = test: Immunoblotting, phosphorylation in LNCap cells; assay type: cell-based, human; settings: LNCap, exposure for 1 hour
Description: (§2) The concentration of protein supernatant was further determined using the Bio-Rad protein assay kit (Bio-Rad Laboratories, Hercules, Calif.). Whole cell lysates were separated on polyacrylamide sodium dodecyl sulfate (SDS) gels and the proteins were transferred onto the nitrocellulose membrane. Proteins were detected sequentially by the specific primary antibodies, followed by peroxidase-conjugated secondary antibodies, and visualized by the Enhanced chemiluminescence detection system (Amersham, N.J.).

JNK½ = test: Immunoblotting, phosphorylation in LNCap cells; assay type: cell-based, human; settings: exposure for 1 hour
Description: as §2

[2] = Body weight, complete blood count and biochemical profile of MDAH-2774-xenografted nude mice; assay type: in vivo; settings: for Creatine / Got (glutamic-oxaloacetic transaminase) / Gpt (glutamic-pyruvic transaminase) / HCT (hematocrit) / MCV (mean corpuscular volume) / PLT / RBC / WBC / Body weight: MDAH-2774 xenograft
SKOV3 cells = test: Cell survival assay (trypan blue) at cell cycle phases; assay type: cell-based, human; settings: 4 hours
Protocol: SKOV3 cells at various cell cycle phases were incubated in the 6-cm Petri dishes and treated with protoapigenone at different dosages ([…]). Subsequently, the cells were harvested and mixed with trypan blue at a ratio of 1:1. The stained apoptotic cells were observed under the microscope.

LNCap cells = test: Annexin V apoptosis assay; assay type: cell-based, human; settings: 10 μM, 3 hours
Protocol: (§3) The theory of this assay is to detect early apoptotic cells during the apoptotic progression. The ovarian cancer cells and the prostate cancer cells respectively were incubated with protoapigenone at 10 μM for 3 hours on chamber slides, washed with cold PBS twice and stained with a binding buffer containing annexin V-fluorescein isothiocyanate (FITC) (1 mg/ml; Strong Biotech, Taipei, Taiwan) and 4,6-diamidino-2-phenylinodole (Sigma-Aldrich) at 25° C. for 15 minutes. The stained cells were washed with PBS twice and observed under the fluorescent microscope.

SKOV3 = test: Annexin V apoptosis assay; assay type: cell-based, human; settings: SKOV3, 10 μM, 3 hours
Protocol: as §3

MDAH-2774 [3] = test: Annexin V apoptosis assay; assay type: cell-based, human; settings: MDAH-2774, 10 μM, 3 hours
Protocol: as §3

RT4 = test: XTT cell proliferation assay (growth inhibition); assay type: cell-based, human
Protocol: (§4) Cells were seeded at 7×10^3 per well in 96-well culture plates before treatment with different concentrations of protoapigenone for 12, 24 and/or 48 hours. Next, the cytotoxicity of protoapigenone was determined using XTT cell proliferation assay (Sigma, St. Louis, Mo.). The absorbance of wavelength at 490 nm (OD490) and 650 nm (OD650) were determined respectively by enzyme-linked immunosorbent assay (ELISA) reader, and 50% of inhibitory concentration (IC50) was calculated by the value of OD490-OD650. In addition, in order to evaluate the long-term effect, the cells were treated with different concentration of protoapigenone for 3 hours, then were incubated with fresh medium for 14 days so as to form colonies. Finally, the cells were stained with crystal violet and were observed under the microscope.

LNCap = test: XTT cell proliferation assay (growth inhibition); assay type: cell-based, human; settings: Homo sapiens; LNCap, 48-hour treatment
Protocol: as §4

Hep 3B = test: XTT cell proliferation assay (growth inhibition); assay type: cell-based, human
Protocol: as §4

T24 = test: XTT cell proliferation assay (growth inhibition); assay type: cell-based, human
Protocol: as §4

[4] = system: LNCap prostate cancer cells; test: Nude mice xenograft model, tumor volume; assay type: in vivo; settings: 5 weeks
Protocol: as §1

MDAH-2774 [5] = test: XTT cell proliferation assay (cytotoxicity); assay type: cell-based, human; settings: Homo sapiens
Protocol: as §4

IC50 (LNCap): 3.7 ± 0.2 µM
IC50 (T24; Homo sapiens, T-24, bladder cancer T24): 5.52 ± 0.598 µM
SMILES: O=C1C=CC(O)(c2cc(=O)c3c(O)cc(O)cc3o2)C=C1 [protoapigenone]
BUN ([1]; high dose, 5 weeks): 24.8 ± 9.0 mg/dL
Creatine ([1]; high dose, 5 weeks): 0.48 ± 0.10 mg/dL
Got (glutamic-oxaloacetic transaminase) ([1]; high dose, 5 weeks): 630.7 ± 165.5 U/L
Gpt (glutamic-pyruvic transaminase) ([1]; high dose, 5 weeks): 137.3 ± 55.8 U/L
MCV (mean corpuscular volume) ([1]; high dose, 5 weeks): 47.7 ± 0.9 fL
RBC ([1]; high dose, 5 weeks): 7.3 ± 0.7 10^6/µL
WBC ([1]; high dose, 5 weeks): 2.7 ± 1.0 10 × 3/μl
Body weight ([1]; high dose, after treatment (5 weeks)): 13.5 ± 0.6 g
Body weight ([1]; high dose, before treatment): 11.5 ± 0.8 g
BUN ([1]; low dose, 5 weeks): 23.9 ± 3.2 mg/dL
Creatine ([1]; low dose, 5 weeks): 0.43 ± 0.05 mg/dL
Got (glutamic-oxaloacetic transaminase) ([1]; low dose, 5 weeks): 520.5 ± 169.9 U/L
Gpt (glutamic-pyruvic transaminase) ([1]; low dose, 5 weeks): 130.0 ± 119.9 U/L
MCV (mean corpuscular volume) ([1]; low dose, 5 weeks): 46.8 ± 0.8 fL
RBC ([1]; low dose, 5 weeks): 7.3 ± 0.6 10^6/µL
WBC ([1]; low dose, 5 weeks): 2.3 ± 0.7 10 × 3/μl
Body weight ([1]; low dose, after treatment (5 weeks)): 13.6 ± 1.2 g
Body weight ([1]; low dose, before treatment): 11.8 ± 0.4 g
body weight, control vs protoapigenone-treated group ([1]; LNCap-xenografted nude mice, 5 weeks): no significant difference
impairment of hematopoiesis, liver function, or renal function ([1]; LNCap-xenografted nude mice, intraperitoneal injection, 5 weeks): No significant impairment
phosphorylation of p38 MAPK (p38 MAPK): dramatic increase
phosphorylation of JNK½ (JNK½): dramatic increase
impairment of hematopoiesis, liver function, or renal function ([2]; MDAH-2774-xenografted nude mice, intraperitoneal injection, 7 weeks): no significant impairment
Creatine ([2]; high dose, 7 weeks): 0.5 ± 0.0 mg/dL
Got (glutamic-oxaloacetic transaminase) ([2]; high dose, 7 weeks): 148.2 ± 59.3 U/L
Gpt (glutamic-pyruvic transaminase) ([2]; high dose, 7 weeks): 52.0 ± 17.6 U/L
HCT (hematocrit) ([2]; high dose, 7 weeks): 46.1 ± 1.8%
MCV (mean corpuscular volume) ([2]; high dose, 7 weeks): 50.9 ± 0.9 fL
PLT ([2]; high dose, 7 weeks): 916.3 ± 100.5 10 × 3/μl
RBC ([2]; high dose, 7 weeks): 9.1 ± 0.3 10^6/µL
WBC ([2]; high dose, 7 weeks): 2.0 ± 0.9 10 × 3/μl
Body weight ([2]; high dose, after treatment (7 weeks)): 19.8 ± 1.1 g
Body weight ([2]; high dose, before treatment): 19.6 ± 0.8 g
Creatine ([2]; low dose, 7 weeks): 0.5 ± 0.0 mg/dL
Got (glutamic-oxaloacetic transaminase) ([2]; low dose, 7 weeks): 119.5 ± 45.5 U/L
Gpt (glutamic-pyruvic transaminase) ([2]; low dose, 7 weeks): 46.3 ± 16.7 U/L
HCT (hematocrit) ([2]; low dose, 7 weeks): 43.5 ± 3.6%
MCV (mean corpuscular volume) ([2]; low dose, 7 weeks): 56.2 ± 8.9 fL
PLT ([2]; low dose, 7 weeks): 1094.5 ± 124.9 10 × 3/μl
RBC ([2]; low dose, 7 weeks): 7.8 ± 1.4 10^6/µL
WBC ([2]; low dose, 7 weeks): 2.6 ± 1.2 10 × 3/μl
Body weight ([2]; low dose, after treatment (7 weeks)): 19.4 ± 0.1 g
Body weight ([2]; low dose, before treatment): 19.6 ± 0.6 g
decrease in number of SKOV3 cells proliferated at G2 phase (SKOV3 cells; 5 μM): 20.3%
decrease in number of SKOV3 cells proliferated at M phase (SKOV3 cells; 5 μM): 44.8%
decrease in number of SKOV3 cells proliferated at S phase (SKOV3 cells; 5 μM): 23.5%
decrease in number of SKOV3 cells proliferated at G2 phase (SKOV3 cells; 10 μM): 34.7%
decrease in number of SKOV3 cells proliferated at M phase (SKOV3 cells; 10 μM): 70.5%
decrease in number of SKOV3 cells proliferated at S phase (SKOV3 cells; 10 μM): 45.4%
ratio of annexin V-FITC positive cells (LNCap cells): 24.2±1.3%
cell apoptosis (annexin V-FITC) (SKOV3): 34.2%
cell apoptosis (annexin V-FITC) (MDAH-2774 [3]): 24.5%
survival rate of RT4 cells (RT4; 4 μM and 8 μM, 24 and 48 hours): decreased
IC50 (RT4; RT-4, human urinary bladder transitional cell papilloma RT4): 5.11 ± 3.25 µM
survival rate of RT4 cells (RT4; low concentrations (0.5, 1 and 2 μM)): over 100%
growth inhibition (Hep 3B; Hep 3B, various concentrations): dose-dependent and time-dependent
IC50 (Hep 3B; Hep3B, human hepatocellular carcinoma Hep 3B): 1.86 µM
growth inhibition (T24; T24, various concentrations): dose-dependent and time-dependent
average tumor size ([4]; high dose (3.7 μM/g body weight i.p. every other day)): 1153.0±218.7 mm^3
average tumor size ([4]; low dose (0.37 μM/g body weight i.p. every other day)): 1876.9±428.6 mm^3
inhibition at 1 µM (MDAH-2774 [5]; MDAH-2774, 1 μM protoapigenone, read-out: inhibition of cell growth): 25%
inhibition at 2.5 µM (MDAH-2774 [5]; MDAH-2774, 2.5 μM protoapigenone, read-out: inhibition of cell growth): 53.4%
IC50 (MDAH-2774 [5]; ovarian cancer cell line MDAH-2774, means ± SD of three independent experiments): 0.69 ± 0.92 µM
